Experimental data: patent publication US20240360194A1, “New Peptides as Potent and Selective GIP Receptor Agonists” (Sanofi, priority 2021, published 2024)
Numbered stars: 1 amine (or outer) side, 2 acyl side, 3 side chain; on linkers, the order of the positions; unused ones are H or OH. Square brackets hold non-standard residues; d marks the D form. Side chains are listed from the residue outwards. Peptide text beside a SMILES is read from it. * marks the point of attachment. C18 diacid = O=C(O)CCCCCCCCCCCCCCCCC(=O)*; γGlu = O=C(O)[C@H](CCC(=O)[*:2])N[*:1]; dIva = CC[C@@](C)(N)C(=O)O; AEEA = NCCOCCOCC(=O)O; Aib = CC(C)(N)C(=O)O

Columns and labels:
[1] = target: T1, human GIP receptor (hGIPR) (Homo sapiens, UniProt P48546); experiment: Binding assay, displacement of [125I]GIP from HEK-293 membranes over-expressing GIPR (SPA); settings: [125I]GIP displacement
T1 sequence (P48546 22-466): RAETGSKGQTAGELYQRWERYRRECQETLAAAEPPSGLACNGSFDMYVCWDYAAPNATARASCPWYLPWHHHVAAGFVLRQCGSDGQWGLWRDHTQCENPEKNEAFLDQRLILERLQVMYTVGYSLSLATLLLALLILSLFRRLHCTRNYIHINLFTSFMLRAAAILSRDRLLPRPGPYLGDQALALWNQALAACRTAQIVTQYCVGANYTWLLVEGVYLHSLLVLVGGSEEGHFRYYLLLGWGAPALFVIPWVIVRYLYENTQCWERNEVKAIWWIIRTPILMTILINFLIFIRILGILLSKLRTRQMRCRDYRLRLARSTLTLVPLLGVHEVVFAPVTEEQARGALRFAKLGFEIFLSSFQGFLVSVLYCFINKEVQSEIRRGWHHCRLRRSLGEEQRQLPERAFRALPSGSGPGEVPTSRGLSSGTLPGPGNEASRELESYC
In short: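 Membranes from HEK-293 cells over-expressing human GIPR or GLP-1R, isolated by homogenising, sonicating and ultracentrifuging at 100000×g into HEPES/EDTA/NaCl buffer with protease inhibitors, were used for binding.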

[2] = ThT assay for the assessment of physical stability (fibrillation); type: physicochemical; settings: ThT buffer system A: 100 mM phosphate buffer pH 7.4; 3 mg/ml, 37° C., shaking
Text: Low physical stability of a peptide solution may lead to amyloid fibril formation, which is observed as well-ordered, thread-like macromolecular structures in the sample, which eventually may lead to gel formation. Thioflavin T (ThT) is widely used to visualize and quantify the presence of misfolded protein aggregates [Biancalana et al., Biochim. Biophys. Acta 2010, 1804(7), 1405]. […] Enzymol. 1999, 309, 274]. The time course for fibril formation often follows the characteristic shape of a sigmoidal curve and can be separated into three regions: a lag phase, a fast growth phase, and a plateau phase. The typical fibril formation process starts with the lag phase in which the amount of partially folded peptide turned into fibrils is not significant enough to be detected. The lag-time corresponds to the time the critical mass of the nucleus is built. Afterwards, a drastic elongation phase follows, and fibril concentration increases rapidly. Investigations were carried out to determine fibrillation tendencies under stress conditions by shaking at 37° C. within Fluoroskan Ascent FL or Fluoroskan Ascent. For the tests in Fluoroskan Ascent (FL), 200 μl sample were placed into a 96-well mictrotiter plate PS, flat bottom, Greiner Fluotrac No. 655076. Plates were sealed with Scotch Tape (Qiagen). Samples were stressed by continuous cycles of 10 sec shaking at 960 rpm and 50 sec rest period at 37° C. The kinetic was monitored by measuring fluorescence intensity every 20 min. Peptides were diluted in a buffer system to a final concentration of 3 mg/ml. 20 μl of a 10.1 mM ThT solution in H2O were added to 2 ml of peptide solution to receive a final concentration of 100 μM ThT. For each sample eight replicates were tested. • ThT buffer system A) 100 mM phosphate buffer pH 7.4 • ThT buffer system B) 100 mM phosphate buffer pH 7.4, 2.7 mg/ml m-cresol Lag time in hours (h) in Thioflavin T (ThT) assay of peptide samples was determined in ThT buffer system A as described in Methods.

[3] = target: T2, human GLP-1 receptor (hGLP-1R) (Homo sapiens, UniProt P43220); experiment: In vitro cellular cAMP assay for GLP-1 receptor efficacy (HEK-293 cell line over-expressing receptor); type: cell-based; settings: HEK-293, 0.1% BSA
Target sequence in this assay (P43220 24-463): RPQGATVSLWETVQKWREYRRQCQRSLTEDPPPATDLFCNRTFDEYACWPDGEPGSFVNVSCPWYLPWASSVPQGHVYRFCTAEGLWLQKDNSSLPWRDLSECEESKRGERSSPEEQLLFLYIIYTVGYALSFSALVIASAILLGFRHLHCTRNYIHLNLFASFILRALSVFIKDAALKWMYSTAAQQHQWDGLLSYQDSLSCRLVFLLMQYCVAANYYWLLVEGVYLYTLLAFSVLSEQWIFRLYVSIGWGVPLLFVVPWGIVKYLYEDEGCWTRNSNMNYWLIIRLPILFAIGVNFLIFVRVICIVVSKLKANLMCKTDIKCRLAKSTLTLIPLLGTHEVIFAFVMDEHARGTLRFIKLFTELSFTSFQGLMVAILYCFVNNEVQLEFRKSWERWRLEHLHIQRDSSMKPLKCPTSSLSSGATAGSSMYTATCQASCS

human GIP receptor = target: T3, human GIP receptor (Homo sapiens, UniProt P48546); experiment: In vitro cellular cAMP assay for GIP receptor efficacy (human adipocytes); type: cell-based; settings: for EC50: read-out: hGIPR EC50; for Emax: read-out: hGIPR Emax
T3 construct: human adipocytes endogenously expressing the human GIP receptor; host or cells: human preadipocytes (Lonza) differentiated to adipocytes
T3 sequence (P48546 22-466): T1 sequence (P48546 22-466)
In short: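 cAMP is read by HTRF (665/620 nm ratio, 1 h after reagents in lysis buffer) following 30 min compound exposure at room temperature. Cells are human preadipocyte-derived adipocytes, differentiated 6 days with insulin, dexamethasone, IBMX (200 μM), PPARγ agonist and L-thyroxine, seeded 5000 per well.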

[4] = target: T2, human GLP-1 receptor (hGLP-1R); experiment: Binding assay, displacement of [125I]GLP-1 from HEK-293 membranes over-expressing GLP-1R (SPA); settings: [125I]GLP-1 displacement
Protocol: (1) Preparation of Membranes from HEK-293 Cells Over-Expressing GIPR or GLP-1R
HEK-293 cells recombinantly over-expressing GIPR or GLP-1R were grown to 50% confluency, washed with warm 1×PBS (Gibco) and detached in HEPES/EDTA-buffer (100 mM HEPES pH 7.5, 5 mM EDTA). Cells were harvested by centrifugation at 4° C. and 3000×g and the pellets were stored at −80° C. until further processing.
After thawing on ice, pellets were resuspended in HEPES/EDTA-buffer and homogenized on ice for 1 min using Ultra-Turray T25. After subsequent sonification the cell debris was removed by centrifugation at 1000×g and 4° C. Supernatants were then ultra-centrifuged at 100000×g and 4° C. under vacuum for 30 min. Pellets were resuspended in HEPES/EDTA/NaCl-buffer (20 mM HEPES, 1 mM EDTA, 150 mM NaCl; add 1 Complete Mini Protease inhibitor cocktail to 10 ml buffer) and protein content was determined via BCA-Protein assay.
(2) Measurement of Binding Activity of Test Compounds to Human GIPR or GLP-1R

Row | SMILES | IC50 [1] | Increase in FI [2] | Lag time before increase [2] | EC50 [3] | EC50 (human GIP receptor) | Emax (human GIP receptor) | IC50 [4]
1 | CC[C@H](C)[C@H](NC(=O)[C@H](CCCNC(=N)N)NC(=O)[C@H](CC(=O)O)NC(=O)[C@H](CCCCNC(=O)COCCOCCNC(=O)COCCOCCNC(=O)CC[C@H](NC(=O)CCCCCCCCCCCCCCCCC(=O)O)C(=O)O)NC(=O)C(C)(C)NC(=O)[C@@H](NC(=O)[C@H](CO)NC(=O)[C@H](CC(C)C)NC(=O)[C@H](CC(=O)O)NC(=O)[C@H](CO)NC(=O)[C@@H](NC(=O)[C@H](Cc1ccccc1)NC(=O)[C@@H](NC(=O)CNC(=O)[C@H](CCC(=O)O)NC(=O)C(C)(C)NC(=O)[C@@H](N)Cc1ccc(O)cc1)[C@@H](C)O)[C@@H](C)CC)[C@@H](C)CC)C(=O)N[C@@H](Cc1c[nH]cn1)C(=O)N[C@@H](CCC(N)=O)C(=O)NC(C)(C)C(=O)N[C@@H](CCC(=O)O)C(=O)N[C@@H](Cc1ccccc1)C(=O)N[C@H](C(=O)N[C@@H](CCC(=O)O)C(=O)N[C@@H](Cc1c[nH]c2ccccc12)C(=O)N[C@@H](CC(C)C)C(=O)N[C@@H](CC(C)C)C(=O)N[C@@H](C)C(=O)N[C@@H](CCC(N)=O)C(=O)N[C@@H](CCC(=O)O)C(=O)NCC(N)=O)[C@@H](C)CC [SEQ ID NO: 12, H2N-Y-Aib-E-G-T-F-I-S-D-L-S-I-Aib-K[{AEEA}2-gGlu-C18OH]-D-R-I-H-Q-Aib-E-F-I-E-W-L-L-A-Q-E-G-NH2] | 0.5 nM | no | >45 h | > 10 nM | 0.5 nM | 112% | 133 nM
2 | CC[C@H](C)[C@H](NC(=O)[C@H](CCC(=O)O)NC(=O)[C@H](CCC(=O)O)NC(=O)[C@H](CCCCNC(=O)COCCOCCNC(=O)COCCOCCNC(=O)CC[C@H](NC(=O)CCCCCCCCCCCCCCCCC(=O)O)C(=O)O)NC(=O)C(C)(C)NC(=O)[C@@H](NC(=O)[C@H](CO)NC(=O)[C@H](CC(C)C)NC(=O)[C@H](CC(=O)O)NC(=O)[C@H](CO)NC(=O)[C@@H](NC(=O)[C@H](Cc1ccccc1)NC(=O)[C@@H](NC(=O)CNC(=O)[C@H](CCC(=O)O)NC(=O)C(C)(C)NC(=O)[C@@H](N)Cc1ccc(O)cc1)[C@@H](C)O)[C@@H](C)CC)[C@@H](C)CC)C(=O)N[C@@H](Cc1c[nH]cn1)C(=O)N[C@@H](CCC(N)=O)C(=O)NC(C)(C)C(=O)N[C@@H](CCC(=O)O)C(=O)N[C@@H](Cc1ccccc1)C(=O)N[C@H](C(=O)N[C@@H](CCC(=O)O)C(=O)N[C@@H](Cc1c[nH]c2ccccc12)C(=O)N[C@@H](CC(C)C)C(=O)N[C@@H](CC(C)C)C(=O)N[C@@H](C)C(=O)N[C@@H](CCC(N)=O)C(=O)NCC(=O)N1CCC[C@H]1C(=O)N[C@@H](CO)C(=O)N[C@@H](CO)C(=O)NCC(=O)N[C@@H](C)C(=O)N1CCC[C@H]1C(=O)N1CCC[C@H]1C(=O)N1CCC[C@H]1C(=O)N[C@@H](CO)C(N)=O)[C@@H](C)CC [SEQ ID NO: 19, H2N-Y-Aib-E-G-T-F-I-S-D-L-S-I-Aib-K[{AEEA}2-gGlu-C18OH]-E-E-I-H-Q-Aib-E-F-I-E-W-L-L-A-Q-G-P-S-S-G-A-P-P-P-S-NH2] (H-Y[Aib]EGTFISDLSI[Aib]K([AEEA-AEEA-γGlu-C18 diacid])EEIHQ[Aib]EFIEWLLAQGPSSGAPPPS-NH2) | – | no | >45 h | > 10 nM | – | 94% | 183 nM
3 | CC[C@H](C)[C@H](NC(=O)[C@H](CCCNC(=N)N)NC(=O)[C@H](CC(=O)O)NC(=O)[C@H](CCCCNC(=O)COCCOCCNC(=O)COCCOCCNC(=O)CC[C@H](NC(=O)CCCCCCCCCCCCCCCCC(=O)O)C(=O)O)NC(=O)C(C)(C)NC(=O)[C@@H](NC(=O)[C@H](CO)NC(=O)[C@H](CC(C)C)NC(=O)[C@H](CC(=O)O)NC(=O)[C@H](CO)NC(=O)[C@@H](NC(=O)[C@H](Cc1ccccc1)NC(=O)[C@@H](NC(=O)CNC(=O)[C@H](CCC(=O)O)NC(=O)C(C)(C)NC(=O)[C@@H](N)Cc1ccc(O)cc1)[C@@H](C)O)[C@@H](C)CC)[C@@H](C)CC)C(=O)N[C@@H](Cc1c[nH]cn1)C(=O)N[C@@H](CCC(N)=O)C(=O)NC(C)(C)C(=O)N[C@@H](CCC(=O)O)C(=O)N[C@@H](Cc1ccccc1)C(=O)N[C@H](C(=O)N[C@@H](CCC(=O)O)C(=O)N[C@@H](Cc1c[nH]c2ccccc12)C(=O)N[C@](C)(CC)C(=O)N[C@@H](CC(C)C)C(=O)N[C@@H](C)C(=O)N[C@@H](CCC(N)=O)C(=O)NCC(=O)N1CCC[C@H]1C(=O)N[C@@H](CO)C(=O)N[C@@H](CO)C(=O)NCC(=O)N[C@@H](C)C(=O)N1CCC[C@H]1C(=O)N1CCC[C@H]1C(=O)N1CCC[C@H]1C(=O)N[C@@H](CO)C(N)=O)[C@@H](C)CC [SEQ ID NO: 31, H2N-Y-Aib-E-G-T-F-I-S-D-L-S-I-Aib-K[{AEEA}2-gGlu-C18OH]-D-R-I-H-Q-Aib-E-F-I-E-W-Iva-L-A-Q-G-P-S-S-G-A-P-P-P-S-NH2] (H-Y[Aib]EGTFISDLSI[Aib]K([AEEA-AEEA-γGlu-C18 diacid])DRIHQ[Aib]EFIEW[dIva]LAQGPSSGAPPPS-NH2) | 0.3 nM | no | >45 h | > 10 nM | 0.7 nM | 121% | –
4 | CC[C@H](C)[C@H](NC(=O)[C@H](CCCNC(=N)N)NC(=O)[C@H](CC(=O)O)NC(=O)[C@H](CC(C)C)NC(=O)C(C)(C)NC(=O)[C@@H](NC(=O)[C@H](CO)NC(=O)[C@H](CC(C)C)NC(=O)[C@H](CC(=O)O)NC(=O)[C@H](CO)NC(=O)[C@@H](NC(=O)[C@H](Cc1ccccc1)NC(=O)[C@@H](NC(=O)CNC(=O)[C@H](CCC(=O)O)NC(=O)C(C)(C)NC(=O)[C@@H](N)Cc1ccc(O)cc1)[C@@H](C)O)[C@@H](C)CC)[C@@H](C)CC)C(=O)N[C@@H](CCCCNC(=O)COCCOCCNC(=O)COCCOCCNC(=O)CC[C@H](NC(=O)CCCCCCCCCCCCCCCCC(=O)O)C(=O)O)C(=O)N[C@@H](CCC(N)=O)C(=O)NC(C)(C)C(=O)N[C@@H](CCC(=O)O)C(=O)N[C@@H](Cc1ccccc1)C(=O)N[C@H](C(=O)N[C@@H](CCC(=O)O)C(=O)N[C@@H](Cc1c[nH]c2ccccc12)C(=O)N[C@@H](CC(C)C)C(=O)N[C@@H](CC(C)C)C(=O)N[C@@H](C)C(=O)N[C@@H](CCC(N)=O)C(=O)NCC(=O)N1CCC[C@H]1C(=O)N[C@@H](CO)C(=O)N[C@@H](CO)C(=O)NCC(=O)N[C@@H](C)C(=O)N1CCC[C@H]1C(=O)N1CCC[C@H]1C(=O)N1CCC[C@H]1C(=O)N[C@@H](CO)C(N)=O)[C@@H](C)CC [SEQ ID NO: 37, H2N-Y-Aib-E-G-T-F-I-S-D-L-S-I-Aib-L-D-R-I-K[{AEEA}2-gGlu-C18OH]-Q-Aib-E-F-I-E-W-L-L-A-Q-G-P-S-S-G-A-P-P-P-S-NH2] (H-Y[Aib]EGTFISDLSI[Aib]LDRIK([AEEA-AEEA-γGlu-C18 diacid])Q[Aib]EFIEWLLAQGPSSGAPPPS-NH2) | 0.1 nM | no | >45 h | > 10 nM | 0.5 nM | 113% | –
